This experiment has as its target human IDO1 (Homo sapiens, UniProt P14902). Put plainly: Assessment of human IDO-1 inhibitory activity in Hela cells (Interferon-gamma activated, Ehrlich reagent, absorbance at 490 nm). Type of experiment: cell-based. Also on record: endogenous in cells; host or cells: HeLa cells stimulated with interferon-gamma. To be noted: 18 hours. On the procedure: Exemplary compounds were tested for inhibition of IDO activity.
HeLa cells were seeded at 20,000 cells per 30 µL per well with RPMI/phenol red free media containing 10% FBS in a 384-well tissue culture plate (black with clear bottoms). 50 nL of compound was added to cells and incubated at 37° C. for one hour. 20 μL of the recombinant human Interferon-gamma (R&D System, Cat. #285-IF, at final concentration of 10 ng/ml) or recombinant murine Interferon-gamma (PEPROTECH® Inc., Cat. #315-05, final concentration of 5 ng/ml) was added to activate IDO signaling. The cells were incubated for 18 hours in 37° C. incubator with 5% CO2.
Compound treatment was stopped by adding 5 μl trichloroacetic acid to a final concentration of 3%. Subsequently, the cell plate was further incubated at 50° C. for 30 minute. An equal volume supernatant (20 μL) and 2% (w/v) Ehrlich reagent (4-dimethylaminobenzaldehyde) in glacial acetic acid were mixed in a new clear bottom 384-well plate. This plate was incubated at room temperature for 30 minutes. Absorbance at 490 nm was measured on Envision plate reader.
Compound IC50 values were calculated using counts from unstimulated (no INF-gamma treatment) wells as 100% inhibition. INF-gamma treatment without compound treatment as 0% inhibition.

Bounds are passed on as bounds.

Sequence of human IDO1 (P14902 whole entry): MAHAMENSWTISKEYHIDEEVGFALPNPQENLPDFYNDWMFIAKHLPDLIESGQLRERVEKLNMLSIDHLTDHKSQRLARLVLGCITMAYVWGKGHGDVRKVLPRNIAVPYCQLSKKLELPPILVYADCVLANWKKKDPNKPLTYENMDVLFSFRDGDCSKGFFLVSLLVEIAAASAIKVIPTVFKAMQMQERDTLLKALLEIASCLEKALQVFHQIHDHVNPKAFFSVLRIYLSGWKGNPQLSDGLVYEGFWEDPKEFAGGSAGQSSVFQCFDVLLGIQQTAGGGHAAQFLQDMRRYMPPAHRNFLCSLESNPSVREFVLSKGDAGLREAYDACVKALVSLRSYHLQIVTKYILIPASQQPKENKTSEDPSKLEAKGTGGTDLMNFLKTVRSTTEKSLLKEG

`CCN(c1ccc(C(CC(=O)O)C2CC2)cc1NC(=O)Nc1ccc(C#N)cc1)C1CCOCC1` (single isomer, unassigned) [Example 255 Enantiomer 2, 3-(3-(3-(4-Cyanophenyl)ureido)-4-(ethyl(tetrahydro-2H-pyran-4-yl)amino)phenyl)-3-cyclopropylpropanoic acid] showed an IC50 above 50 nM.

The compound `COCCN(c1ccc(C(COC)CC(=O)O)cc1Nc1ccc(Cl)cc1)C1CCOCC1` (single isomer, unassigned) [Example 256 Enantiomer 2, 3-(3-((4-Chlorophenyl)amino)-4-((2-methoxyethyl)(tetrahydro-2H-pyran-4-yl)amino)phenyl)-4-methoxybutanoic acid] displayed an IC50 below 5 nM. The figure for `COCCN(c1ccc(C(COC)CC(=O)O)cc1Nc1ccc(C#N)cc1)C1CCOCC1` (single isomer, unassigned) [Example 259, 3-(3-((4-cyanophenyl)amino)-4-((2-methoxyethyl)(tetrahydro-2H-pyran-4-yl)amino)phenyl)-4-methoxybutanoic acid] is below 50 nM; for `COCCN(c1ccc(C(COC)CC(=O)O)cc1Nc1ccc(F)cc1)C1CCOCC1` (single isomer, unassigned) [Example 260, 3-(3-((4-fluorophenyl)amino)-4-((2-methoxyethyl)(tetrahydro-2H-pyran-4-yl)amino)phenyl)-4-methoxybutanoic acid] it is below 50 nM; for `COCCN(c1ccc(C(COC)CC(=O)O)cc1NC(=O)Nc1ccc(C)cc1)C1CCOCC1` (single isomer, unassigned) [Example 261 Enantiomer 2, 4-Methoxy-3-(4-((2-methoxyethyl)(tetrahydro-2H-pyran-4-yl)amino)-3-(3-(p-tolyl)ureido)phenyl)butanoic acid] it is above 50 nM.

In the case of `COCCN(c1ccc(C(COC)CC(=O)O)cc1NC(=O)Nc1ccc(Cl)cc1F)C1CCOCC1` (single isomer, unassigned) [Example 263, 3-(3-(3-(4-chloro-2-fluorophenyl)ureido)-4-((2-methoxyethyl)(tetrahydro-2H-pyran-4-yl)amino)phenyl)-4-methoxybutanoic acid], the IC50 is above 50 nM. The figure for `CCC(CC(=O)O)c1ccc(N(CC(F)F)C2CCOCC2)c(Nc2ccc(Cl)cc2)c1` (single isomer, unassigned) [Example 318 Enantiomer 2, 3-(3-((4-Chlorophenyl)amino)-4-((2,2-difluoroethyl)(tetrahydro-2H-pyran-4-yl)amino)phenyl)pentanoic acid] is below 5 nM; for `COCC(CC(=O)O)c1ccc(N(CC(F)F)C2CCOCC2)c(Nc2ccc(Cl)cc2)c1` (single isomer, unassigned) [Example 321 Enantiomer 2, 3-(3-((4-Chlorophenyl)amino)-4-((2,2-difluoroethyl)(tetrahydro-2H-pyran-4-yl)amino)phenyl)-4-methoxybutanoic acid] it is below 5 nM. With `COCC(CC(=O)O)c1ccc(N(CC(F)F)C2CCOCC2)c(Nc2ccc(C#N)cc2)c1` (single isomer, unassigned) [Example 323] the figure was below 5 nM.

Turning to `CCC(CC(=O)O)c1ccc(N(CC)C2CCS(=O)(=O)CC2)c(Nc2ccc(Cl)cc2)c1` (single isomer, unassigned) [Example 334 Enantiomer 2, 3-(3-((4-Chlorophenyl)amino)-4-((1,1-dioxidotetrahydro-2H-thiopyran-4-yl)(ethyl)amino)phenyl)pentanoic acid], the IC50 is below 5 nM. In the case of `CCN(c1ccc(C(CC(=O)O)C2CC2)cc1Nc1ccc(OC)nc1)C1CCS(=O)(=O)CC1` (single isomer, unassigned) [Example 346, 3-cyclopropyl-3-(4-((1,1-dioxidotetrahydro-2H-thiopyran-4-yl)(ethyl)amino)-3-((6-methoxypyridin-3-yl)amino)phenyl)propanoic acid], the IC50 is below 50 nM.

In turn, `CCN(c1ccc(C(CC(=O)O)C2CC2)cc1Nc1ccc(F)cc1)C1CCS(=O)(=O)CC1` (single isomer, unassigned) [Example 347, 3-cyclopropyl-3-(4-((1,1-dioxidotetrahydro-2H-thiopyran-4-yl)(ethyl)amino)-3-((4-fluorophenyl)amino)phenyl)propanoic acid] showed an IC50 below 5 nM. The figure for `CCN(c1ccc([C@H](COC)CC(=O)O)cc1Nc1ncc(F)cc1F)C1CCOCC1` (single isomer, unassigned) [Example 395] is above 50 nM; for `CCN(c1ccc([C@H](COC)CC(=O)O)cc1Nc1ccc(C)cc1)C1CCOCC1` (single isomer, unassigned) [Example 410] it is below 50 nM; for `CCN(c1ccc([C@H](COC)CC(=O)O)cc1Nc1ccc(Cl)cc1)C1CCOCC1` (single isomer, unassigned) [Example 413] it is below 5 nM. With `CCN(c1ccc(C(COC)CC(=O)O)cc1NC(=O)Nc1ccc(C#N)cc1)C1CCOCC1` (single isomer, unassigned) [Example 422 E2] the figure was above 50 nM. The compound `CC[C@@H](CC(=O)O)c1ccc(N(CC)C2CCOCC2)c(Nc2ccc(Cl)cn2)c1` (single isomer, unassigned) [Example 460] registered an IC50 below 5 nM.

`CC[C@H](CC(=O)O)c1ccc(N(CC)C2CCOCC2)c(Nc2ccc(C#N)cn2)c1` (single isomer, unassigned) [Example 504] had an IC50 below 5 nM. The compound `CCCN(c1ccc([C@@H](COC)CC(=O)O)cc1Nc1cnc(OCC2CC2)nc1)C1CCOCC1` (single isomer, unassigned) [Example 543] had an IC50 below 5 nM.

For `CCCOc1ncc(Nc2cc(C(C)CC(=O)O)ccc2N(CC)C2CCOCC2)cn1` (single isomer, unassigned) [Example 634, 3-(4-(ethyl(tetrahydro-2H-pyran-4-yl)amino)-3-((2-propoxypyrimidin-5-yl)amino)phenyl)butanoic acid], the half-inhibitory concentration (IC50) was below 50 nM. With `CCN(c1ccc(C(C)CC(=O)O)cc1Nc1cnc(OC(C)C)nc1)C1CCOCC1` (single isomer, unassigned) [Example 635, 3-(4-(ethyl(tetrahydro-2H-pyran-4-yl)amino)-3-((2-isopropoxypyrimidin-5-yl)amino)phenyl)butanoic acid] the figure was above 50 nM.

`CCOc1ncc(Nc2cc(C(CC)CC(=O)O)ccc2N2CCN(C(=O)OC)CC2)cn1` (single isomer, unassigned) [Example 670, 3-(3-((2-Ethoxypyrimidin-5-yl)amino)-4-(4-(methoxycarbonyl)piperazin-1-yl)phenyl)pentanoic acid] had an IC50 above 50 nM. With `CCOc1ncc(Nc2cc(C(CC)CC(=O)O)ccc2N2CCNCC2)cn1` (single isomer, unassigned) [Example 673] the figure was above 50 nM; with `CC(CC(=O)O)c1ccc(N2C[C@@H](C)O[C@@H](C)C2)c(NC(=O)Nc2ccc(C#N)cc2)c1` (single isomer, unassigned) [Example 752], above 50 nM. With `Cc1ccc(NC(=O)Nc2cc(C(C)CC(=O)O)ccc2N2C[C@@H](C)O[C@@H](C)C2)cc1` (single isomer, unassigned) [Example 753] the figure was above 50 nM; with `CCN(c1cc(F)c([C@@H](COC)CC(=O)O)cc1Nc1ccc(Cl)cc1)C1CCOCC1` (single isomer, unassigned) [Example 844, 3-(5-((4-Chlorophenyl)amino)-4-(ethyl(tetrahydro-2H-pyran-4-yl)amino)-2-fluorophenyl)-4-methoxybutanoic acid], below 5 nM.

In the case of `CCC(CC(=O)O)c1cc(Nc2ccc(Cl)cc2)c(N(CC)C2CCOCC2)cc1F` (single isomer, unassigned) [Example 861, 3-(5-((4-Chlorophenyl)amino)-4-(ethyl(tetrahydro-2H-pyran-4-yl)amino)-2-fluorophenyl)pentanoic acid], the IC50 is below 5 nM. With `CCC(CC(=O)O)c1cc(Nc2cnc(OCC3CC3)nc2)c(N(CC)C2CCOCC2)cc1F` (single isomer, unassigned) [Example 863, 3-(5-((2-(cyclopropylmethoxy)pyrimidin-5-yl)amino)-4-(ethyl(tetrahydro-2H-pyran-4-yl)amino)-2-fluorophenyl) pentanoic acid] the figure was below 5 nM; with `CCC(CC(=O)O)c1cc(Nc2cnc(OC)nc2)c(N(CC)C2CCOCC2)cc1F` (single isomer, unassigned) [Example 864, 3-(4-(ethyl(tetrahydro-2H-pyran-4-yl)amino)-2-fluoro-5-((2-methoxypyrimidin-5-yl)amino)phenyl)pentanoic acid], below 5 nM. The figure for `CCOc1ncc(Nc2cc(C(CC)CC(=O)O)c(F)cc2N(CC)C2CCOCC2)cn1` (single isomer, unassigned) [Example 865, 3-(5-((2-ethoxypyrimidin-5-yl)amino)-4-(ethyl (tetrahydro-2H-pyran-4-yl)amino)-2-fluorophenyl) pentanoic acid] is below 5 nM; for `CCOc1ncc(Nc2cc(C(CC)CC(=O)O)ccc2N(C)C2CCOCC2)cn1` (single isomer, unassigned) [Example 872, 3-(3-((2-ethoxypyrimidin-5-yl)amino)-4-(methyl (tetrahydro-2H-pyran-4-yl)amino)phenyl)pentanoic acid] it is below 50 nM.

The term IC50 denotes the point on the concentration scale where inhibition reaches its midpoint. A lower IC50 goes with higher potency.

(Values after patent US10399932B2, “Inhibitors of indoleamine-2,3-dioxygenase for the treatment of cancer” (BRISTOL-MYERS SQUIBB COMPANY, priority 2015, dated 2019).)
